Where two headings read alike, the source gives them in different places.
Key:
BxPC3 cells [1] = assay: Endocytic pathway in tumor cells (endocytosis inhibitors); assay type: cell-based, human; settings: chlorpromazine 50 μM, genistein 200 μM, wortmannin 5 μM, cytochalasin D 5 μM; for inhibition at 5 µM / inhibition at 200 µM / inhibition at 50 µM: Homo sapiens; for inhibition rate on the endocytosis of LPGL in BxPC3 cells: serum-containing medium
Protocol: BxPC3 cells (1×10^5 cells/mL, 1 mL) were cultured in 12-well plates for 24 h, and the culture medium was then replaced with 1 mL fresh serum-free medium. Chlorpromazine (50 μM, clathrin-mediated endocytosis inhibitor), genistein (200 μM, caveolae-mediated endocytosis inhibitor), wortmannin (5 μM, phosphatidylinositol 3-kinases-mediated macropinocytosis inhibitor), or cytochalasin D (5 μM, actin-polymerization inhibitor) was added to the medium for 2 h of incubation. Another group of BxPC3 cells without any endocytosis inhibitor treatment was cultured for 2 h as the control group. Next, the mixture of Cy5-labeled LPGL liposome (equivalent to fluorescent lipids of 60 μg/mL, 20 μL) and serum-containing medium or serum-free medium was respectively added into the plate, and subsequently treated with or without ultrasound stimulation (acoustic intensity: 2 W/cm^2, frequency: 3 MHz, duty cycle: 50%, duration time: 5 min). After incubation of 3 h, cells were washed, digested and collected into a centrifugal tube, and the mean fluorescence intensity was detected by flow cytometry.

[2] = tested on: three-dimensional (3D) multicellular tumor spheroids of BxPC3; assay: Cytotoxicity on 3D multicellular tumor spheroids (Alamar Blue); assay type: cell-based, human; settings: serum-containing medium, ultrasound stimulation, 72 h, equivalent to GEM 0~10 μM
Protocol: (§1) The cytotoxicity of the liposome was tested on the three-dimensional (3D) multicellular tumor spheroids of BxPC3 or Huh7. The tumor spheroids were established using the hanging drop method. The mixture of LPGL, PGL, LGL, GL or free gemcitabine (GEM) and serum-containing medium were respectively added into the wells containing three-dimensional (3D) multicellular tumor spheroids of BxPC3 or Huh7 at the final testing concentrations (equivalent to GEM: 0˜10 μM), and treated with ultrasound stimulation (acoustic intensity: 2 W/cm^2, frequency: 3 MHz, duty cycle: 50%, duration time: 5 min), then incubated for 72 h. Meanwhile, the LPL liposome with equimolar ratio to LPGL liposome was tested as a control. Afterward, the culture medium was replaced with a mixture of 90 μL fresh culture medium and 10 μL Alamar Blue Cell Viability Reagent, and was continuously incubated for 12 h. The sample plates were then detected using a plate reader at 530 nm excitation and 590 nm emission to obtain fluorescence intensity readouts. In addition, apoptosis induced by the liposome in spheroids were further determined by the TdT-mediated dUTP nick end labeling (TUNEL) assay, and the positive TUNEL-staining cells were examined by CLSM.

[3] = tested on: three-dimensional (3D) multicellular tumor spheroids of Huh7; assay: as above; assay type: cell-based, human; settings: serum-containing medium, ultrasound stimulation, 72 h, equivalent to GEM 0~10 μM
Protocol: as §1

[4] = tested on: 3D multicellular tumor spheroids of BxPC3; assay: Morphology and apoptosis of tumor spheroids (light microscope, TUNEL staining); assay type: cell-based, human; settings: equivalent to GEM 0.1 μM, serum-containing medium, ultrasound stimulation, 72 h
Protocol: The method for inhibiting 3D multicellular tumor spheroids of BxPC3 with free GEM and different liposomes is as follows: the mixture of LPGL, PGL, LGL, GL liposome, free gemcitabine (GEM) or PBS and serum-containing medium was incubated with 3D multicellular tumor spheroids of BxPC3 at the final testing concentrations (equivalent to GEM: 0.1 μM), and treated with ultrasound stimulation (acoustic intensity: 2 W/cm^2, frequency: 3 MHz, duty cycle: 50%, duration time: 5 min), then incubated for 72 h, the morphology of 3D multicellular tumor spheroids of BxPC3 in different treatment group was observed using light microscope and TUNEL staining, scale bar=500 μm. […] (10E) The mean integrated optical density (IOD) of fluorescence in two inner layers of 75 μm and 100 μm (as shown in FIG. 10 D) in 3D multicellular tumor spheroids of BxPC3 was analyzed using Image-pro Plus 6.0 software to evaluate the penetration ability of liposome.
The cytotoxicity of the liposome was tested on the three-dimensional (3D) multicellular tumor spheroids of BxPC3 or Huh7. […] The sample plates were then detected using a plate reader at 530 nm excitation and 590 nm emission to obtain fluorescence intensity readouts. In addition, apoptosis induced by the liposome in spheroids were further determined by the TdT-mediated dUTP nick end labeling (TUNEL) assay, and the positive TUNEL-staining cells were examined by CLSM.

[5] = tested on: human-derived tumor xenograft of PDA; assay: In vivo antitumor activity (PDA model); design: species or system BALB/c nude mice
Protocol: BALB/c nude mice bearing human-derived tumor xenograft of PDA in the subcutaneous region were selected and grouped into seven groups (n=6). Each group was intravenously injected with LPGL liposome dispersion (dose equivalent to GEM 10 mg/kg), PGL liposome dispersion (dose equivalent to GEM 10 mg/kg), LGL liposome dispersion (dose equivalent to GEM 10 mg/kg), GL liposome dispersion (dose equivalent to GEM 10 mg/kg), GEM PBS7.4 dispersion (dose equivalent to GEM 10 mg/kg), LPL liposome dispersion or PBS 7.4 buffer respectively every two days for a total of four times. The 16th day was the first time of intravenous injection administration. The tumor site of each group was treated with ultrasound stimulation (acoustic intensity: 2 W/cm^2, frequency: 3 MHz, duty cycle: 50%, duration time: 20 min) after post-injection. The width and length of the tumors and the bodyweight of mice were measured during the treatment. At the end of the experiment at 36 days, the blood was collected, then mice were euthanized, tumors were dissected and weighed. The therapeutic efficacy was evaluated by comparing tumor size in the experimental group and control group. The tumor inhibition rate=100%×(mean tumor weight of PBS group−mean tumor weight of experimental group)/mean tumor weight of PBS group. The dissected tumors were fixed with 4% neutral buffered paraformaldehyde and embedded in paraffin. Tissue sections of 5-μm thick were mounted onto glass slides and stained with hematoxylin-eosin (H&E), and then examined by light microscopy. The immunohistochemistry staining of Ki67 was tested to investigate the percentage of proliferous tumor cells positively stained in the examined field. Tissue sections were subjected to Ki67 staining using the Ki67-antibody Assay Kit according to the manufacturer's protocol. Apoptotic cells were also identified using TUNEL Apoptosis Assay Kit and examined using CLSM

[6] = tested on: human-derived tumor xenograft of HCC; assay: In vivo antitumor activity and toxicity (HCC model); design: species or system BALB/c nude mice
Protocol: The study of liposome and its characteristics and anti-tumor activity in Example 2 was the same as that in Example 1. The difference was that LPGL liposome and LGL liposome were prepared by replacing DSPE-PEG2000-RGD with DSPE-PEG2000-NGR. The DSPE-PEG2000-NGR refers to 1,2-distearoyl-sn-glycero-3-phosphoethanolamine-N-[methoxy (polyethylene glycol)-2000]-NGR targeting peptide, the amino acid sequence of NGR targeting peptide was Gly (glycine)-Gly (glycine)-Cys (cysteine)-Asn (asparagine)-Gly (glycine)-Arg (arginine)-Cys (cysteine) with the amino acid sequence GGCNGRC (SEQ ID NO: 2).
BALB/c nude mice bearing human-derived tumor xenograft of hepatocellular carcinoma (HCC) in the subcutaneous region were selected and grouped into six groups (n=9, wherein three mice of each group were selected to measure the accumulation content of gemcitabine triphosphate active metabolite (dFdCTP) in the tumor after 24 h of first intravenous injection). Same to the PDA model in the Example 1, after BALB/c nude mice subcutaneously bearing human-derived tumor xenograft of HCC were injected with free GEM PBS 7.4 buffer, GL liposome, NGR modified LGL liposome, PGL liposome, NGR modified LPGL liposome or PBS 7.4, the tumor site was treated with ultrasound stimulation (+US, acoustic intensity: 2 W/cm^2, frequency: 3 MHz, duty cycle: 50%, duration time: 20 min). At 24 h after firstly intravenous injection, the accumulation content of gemcitabine triphosphate active metabolite (dFdCTP) in the tumor was shown in FIG. 17B. As GEM could quickly be phosphorylated into its active metabolite of GEM triphosphate (dFdCTP) in tumor, so the dFdCTP was widely used as a quantitative index of GEM.
The tumor size and the bodyweight of mice in each group was shown in FIG. 17C, FIG. 17D, FIG. 17E and FIG. 17F. […] At the end of the 34-day experiment, the mice serum was sampled, and the content of alanine aminotransferase (ALT), aspartate aminotransferase (AST), creatinine (CRE) and blood urea nitrogen (BUN) in the serum was detected to evaluate the in vivo hepatic and renal toxicity (as shown in Table 4).

BxPC3 cells [7] = assay: Transcytosis transport in tumor cells; assay type: cell-based, human; settings: BxPC3 cells pretreated with EXO1 20 μM; serum-containing medium, with ultrasound stimulation
Protocol: BxPC3 cells (1×10^5 cells/mL, 1 mL) were cultured in a confocal dish for 24 h, and the culture medium was then replaced with 1 mL fresh serum-free medium. Next, the mixture of Cy5-labeled GL, LGL, PGL or LPGL liposome (equivalent to fluorescent lipids of 60 μg/mL, 20 μL) and serum-containing medium or serum-free medium was respectively added into the confocal dish, and subsequently treated with or without ultrasound stimulation (acoustic intensity: 2 W/cm^2, frequency: 3 MHz, duty cycle: 50%, duration time: 5 min). After incubation of 3 h, the dishes were washed twice with PBS. A total of 1×10^5 fresh cells in 1 mL of fresh serum-free medium was added to the dishes. The mixed cells were continuously incubated for 0 min, 30 min, and 120 min. The transcellular transport of liposome from previously added cells to newly added cells was photographed at incubation time of 0 min, 30 min, and 120 min with a CLSM using 640 nm excitation wavelength. Then the newly added cells at 120 min of incubation were washed away and collected into a centrifugal tube, and detected using flow cytometry. Meanwhile, BxPC3 cells pretreated with an exocytosis inhibitor EXO1 (20 μM) were tested using the same method to investigate the inhibition of transcellular transport.

[8] = tested on: 3D multicellular tumor spheroids of BxPC3; assay: Penetration in tumor spheroids (CLSM); assay type: cell-based, human; settings: EXO1 20 μM pretreatment
Protocol: The 3D multicellular tumor spheroids of BxPC3 pretreated with or without exocytosis inhibitor EXO1 (20 μM) were transferred to a confocal dish containing fresh serum-free medium. The mixture of Cy5-labeled LPGL, PGL, LGL or GL liposome (equivalent to fluorescent lipids of 60 μg/mL, 30 μL) and fresh serum-containing medium were added, and treated with ultrasound stimulation (acoustic intensity: 2 W/cm^2, frequency: 3 MHz, duty cycle: 50%, duration time: 5 min), then incubated for 6 h. After washing with PBS, images were obtained with CLSM in XYZ-3D-stack at 25-μm intervals from apex to equator.

[9] = BXPC-3, serum-containing medium, with ultrasound stimulation, read-out: inhibition rate on the endocytosis of LPGL in BxPC3 cells
[10] = BXPC-3, serum-containing medium, without ultrasound stimulation, read-out: inhibition rate on the endocytosis of LPGL in BxPC3 cells
[11] = BXPC-3, serum-free medium, without ultrasound stimulation, read-out: inhibition rate on the endocytosis of LPGL liposome in BxPC3 cells
[12] = mice serum, end of the 34-day experiment, LGL and LPGL are NGR modified

SMILES: COC[C@H]1OC(=O)c2coc3c2[C@@]1(C)C1=C(C3=O)[C@@H]2CCC(=O)[C@@]2(C)C[C@H]1OC(C)=O [wortmannin]
- inhibition at 5 µM (BxPC3 cells [1]; BXPC-3, read-out: inhibition rate on the endocytosis of LPGL in BxPC3 cells, serum-containing medium, with ultrasound stimulation): 24.8%
- inhibition at 5 µM (BxPC3 cells [1]; BXPC-3, read-out: inhibition rate on the endocytosis of LPGL in BxPC3 cells, serum-containing medium, without ultrasound stimulation): 23.5%
- inhibition at 5 µM (BxPC3 cells [1]; BXPC-3, read-out: inhibition rate on the endocytosis of LPGL liposome in BxPC3 cells, serum-free medium, without ultrasound stimulation): 13.4%

SMILES: O=c1c(-c2ccc(O)cc2)coc2cc(O)cc(O)c12 [genistein]
- inhibition at 200 µM (BxPC3 cells [1]; [9]): 52.5%
- inhibition at 200 µM (BxPC3 cells [1]; [10]): 28.9%
- inhibition at 200 µM (BxPC3 cells [1]; [11]): 57.6%

SMILES: Nc1ccn([C@@H]2O[C@H](CO)[C@@H](O)C2(F)F)c(=O)n1 [GEM, gemcitabine]
- cytotoxicity against 3D multicellular tumor spheroids of BxPC3 [2]: dose-dependent cytotoxicity
- cytotoxicity against 3D multicellular tumor spheroids of Huh7 [3]: dose-dependent cytotoxicity
- apoptotic cells in BxPC3 spheroids (TUNEL staining) [4]: few apoptotic cells distributed around the spheroid's periphery
- morphology of BxPC3 spheroids (light microscope) [4]: no significant change in morphology
- side effects: body weight, white blood cell (WBC) and blood platelet ([5]; during treatment / end of the 36-day experiment): distinct body weight loss, and hematological damage on sharp decrease of white blood cell (WBC) and blood platelet
- H&E staining of excised tumors, vs LPL liposome and PBS ([5]; end of the 36-day experiment): much less densely populated cells
- distribution of apoptotic cells in tumor (TUNEL assay) ([5]; end of the 36-day experiment): merely existed around the tumor periphery
- change of tumor volume ([5]; i.v. every two days, four times, dose equivalent to GEM 10 mg/kg, ultrasound on tumor 20 min): firstly delayed, but then recovered to grow when stopping administration
- bodyweight of mice ([6]; during treatment): gradually decreased
- content of AST, ALT, BUN and CRE relative to normal range ([6]; mice serum, end of the 34-day experiment): beyond the maximum of normal limit
- ALT [6, 12]: 81.1 ± 10.5 U/L
- AST [6, 12]: 218.6 ± 25.3 U/L
- BUN [6, 12]: 47.6 ± 5.0 mg/dL
- CRE [6, 12]: 0.68 ± 0.17 mg/dL

SMILES: CN(C)CCCN1c2ccccc2Sc2ccc(Cl)cc21 [chlorpromazine]
- inhibition at 50 µM (BxPC3 cells [1]; [9]): 24.4%
- inhibition at 50 µM (BxPC3 cells [1]; [10]): 35.9%
- inhibition at 50 µM (BxPC3 cells [1]; [11]): 21.1%

SMILES: C=C1[C@@H](C)[C@H]2[C@H](Cc3ccccc3)NC(=O)[C@]23[C@H](OC(C)=O)/C=C/[C@@](C)(O)C(=O)[C@@H](C)C/C=C/[C@H]3[C@@H]1O [cytochalasin D]
- inhibition rate on the endocytosis of LPGL in BxPC3 cells (BxPC3 cells [1]; with ultrasound stimulation): 17.0%
- inhibition rate on the endocytosis of LPGL in BxPC3 cells (BxPC3 cells [1]; without ultrasound stimulation): 10.2%
- inhibition rate on the endocytosis of LPGL liposome in BxPC3 cells (BxPC3 cells [1]; serum-free medium, without ultrasound stimulation): 19.9%

SMILES: COC(=O)c1ccccc1NC(=O)c1ccc(F)cc1 [EXO1]
- effect on transcytosis transport of LPGL liposome (BxPC3 cells [7]): could be inhibited
- effect on permeability of LPGL liposome into the 3D spheroid of BxPC3 [8]: could significantly inhibit the permeability of LPGL liposome
